Key:
Assay in all cases: Test C preemergence
pigweed = format: in vivo, Amaranthus retroflexus; settings: for Pigweed plant response rating: preemergence
Procedure, shortened: (§1)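 Whole-plant greenhouse test with surfactant-containing solvent formulation, applied preemergence to sown loam–sand pots or postemergence to 2–18 cm plants. Scored by eye 13 to 15 days on, 0–100 scale.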

oilseed rape = format: in vivo, Brassica napus; settings: for Oilseed Rape plant response rating: preemergence
Procedure, shortened: as §1

yellow nutsedge = format: in vivo, Cyperus esculentus; settings: for Nutsedge, Yellow plant response rating: preemergence
Procedure, shortened: as §1

ragweed = format: in vivo, Ambrosia elatior; settings: for Ragweed plant response rating: preemergence
Procedure, shortened: as §1

corn = format: in vivo, Zea mays; settings: for Corn plant response rating: preemergence; for Plant response rating, Corn: Preemergence, scale 0 to 100, 0 no effect, 100 complete control
Procedure, shortened: as §1

blackgrass = format: in vivo, Alopecurus myosuroides; settings: for Blackgrass plant response rating: preemergence; for Plant response rating, Blackgrass: Preemergence, scale 0 to 100, 0 no effect, 100 complete control
Procedure, shortened: as §1

lambsquarters = format: in vivo, Chenopodium album; settings: for Lambsquarters plant response rating: preemergence
Procedure, shortened: as §1

giant foxtail = format: in vivo, Setaria faberii; settings: for Foxtail, Giant plant response rating: preemergence; for Plant response rating, Foxtail, Giant: Preemergence, scale 0 to 100, 0 no effect, 100 complete control
Procedure, shortened: as §1

large (Lg) crabgrass = format: in vivo, Digitaria sanguinalis; settings: for Crabgrass, Large plant response rating: preemergence; for Plant response rating, Crabgrass, Large: Preemergence, scale 0 to 100, 0 no effect, 100 complete control
Procedure, shortened: as §1

johnsongrass = format: in vivo, Sorghum halepense; settings: for Johnsongrass plant response rating: preemergence
Procedure, shortened: as §1

galium = format: in vivo, Galium aparine; settings: for Galium plant response rating: preemergence; for Plant response rating, Galium: Preemergence, scale 0 to 100, 0 no effect, 100 complete control
Procedure, shortened: as §1

barnyardgrass = format: in vivo, Echinochloa crus-galli; settings: for Barnyardgrass plant response rating: preemergence; for Plant response rating, Barnyardgrass: Preemergence, scale 0 to 100, 0 no effect, 100 complete control
Procedure, shortened: as §1

waterhemp = format: in vivo, Amaranthus rudis; settings: for Waterhemp plant response rating: preemergence
Procedure, shortened: as §1

[1] = 125 g ai/ha, scale 0 (no effect) to 100 (complete control)
[2] = 250 g ai/ha, scale 0 (no effect) to 100 (complete control)
[3] = Preemergence, 62 g ai/ha, scale 0 to 100, 0 no effect, 100 complete control
[4] = 16 g ai/ha, scale 0 to 100 (0 no effect, 100 complete control)
[5] = 62 g ai/ha, scale 0 (no effect) to 100 (complete control)

N#Cc1cnn(-c2c(C#N)cccc2Oc2ncc(Cl)cn2)c1 [Compound 200]
Pigweed plant response rating (pigweed; [1]): 100 | Pigweed plant response rating (pigweed; [2]): 100 | Plant response rating, Pigweed (pigweed; [3]): 100 | Oilseed Rape plant response rating (oilseed rape; [1]): 98 | Oilseed Rape plant response rating (oilseed rape; [2]): 98 | Plant response rating, Oilseed Rape (oilseed rape; [3]): 98 | Nutsedge, Yellow plant response rating (yellow nutsedge; [1]): 90 | Nutsedge, Yellow plant response rating (yellow nutsedge; [2]): 95 | Plant response rating, Nutsedge, Yellow (yellow nutsedge; [3]): 40 | Ragweed plant response rating (ragweed; [1]): 100 | Ragweed plant response rating (ragweed; [2]): 98 | Plant response rating, Ragweed (ragweed; [3]): 100 | Corn plant response rating (corn; [1]): 60 | Corn plant response rating (corn; [2]): 75 | Plant response rating, Corn (corn; 62 g ai/ha): 5 | Blackgrass plant response rating (blackgrass; [1]): 98 | Blackgrass plant response rating (blackgrass; [2]): 98 | Plant response rating, Blackgrass (blackgrass; 62 g ai/ha): 95 | Lambsquarters plant response rating (lambsquarters; [1]): 98 | Lambsquarters plant response rating (lambsquarters; [2]): 98 | Plant response rating, Lambsquarters (lambsquarters; [3]): 98 | Foxtail, Giant plant response rating (giant foxtail; [1]): 100 | Foxtail, Giant plant response rating (giant foxtail; [2]): 100 | Plant response rating, Foxtail, Giant (giant foxtail; 62 g ai/ha): 100 | Crabgrass, Large plant response rating (large (Lg) crabgrass; [1]): 100 | Crabgrass, Large plant response rating (large (Lg) crabgrass; [2]): 100 | Plant response rating, Crabgrass, Large (large (Lg) crabgrass; 62 g ai/ha): 100 | Johnsongrass plant response rating (johnsongrass; [1]): 98 | Johnsongrass plant response rating (johnsongrass; [2]): 98 | Plant response rating, Johnsongrass (johnsongrass; [3]): 98 | Galium plant response rating (galium; [1]): 100 | Galium plant response rating (galium; [2]): 100 | Plant response rating, Galium (galium; 62 g ai/ha): 100 | Barnyardgrass plant response rating (barnyardgrass; [1]): 100 | Barnyardgrass plant response rating (barnyardgrass; [2]): 100 | Plant response rating, Barnyardgrass (barnyardgrass; 62 g ai/ha): 100 | Waterhemp plant response rating (waterhemp; [1]): 100 | Waterhemp plant response rating (waterhemp; [2]): 100 | Plant response rating, Waterhemp (waterhemp; [3]): 100

Fc1cnc(Oc2cccc(C(F)F)c2-n2cc(C(F)(F)F)cn2)nc1 [Compound 164]
Pigweed plant response rating (pigweed; [4]): 98 | Pigweed plant response rating (pigweed; [5]): 100 | Pigweed plant response rating (pigweed; [1]): 98 | Oilseed Rape plant response rating (oilseed rape; [4]): 70 | Oilseed Rape plant response rating (oilseed rape; [5]): 100 | Oilseed Rape plant response rating (oilseed rape; [1]): 100 | Nutsedge, Yellow plant response rating (yellow nutsedge; [4]): 0 | Nutsedge, Yellow plant response rating (yellow nutsedge; [5]): 20 | Nutsedge, Yellow plant response rating (yellow nutsedge; [1]): 25 | Ragweed plant response rating (ragweed; [4]): 0 | Ragweed plant response rating (ragweed; [5]): 75 | Ragweed plant response rating (ragweed; [1]): 85 | Corn plant response rating (corn; [4]): 0 | Corn plant response rating (corn; [5]): 5 | Corn plant response rating (corn; [1]): 45 | Plant response rating, Corn (corn; 31 g ai/ha): 5 | Blackgrass plant response rating (blackgrass; [4]): 0 | Blackgrass plant response rating (blackgrass; [5]): 90 | Blackgrass plant response rating (blackgrass; [1]): 90 | Plant response rating, Blackgrass (blackgrass; 31 g ai/ha): 50 | Lambsquarters plant response rating (lambsquarters; [4]): 70 | Lambsquarters plant response rating (lambsquarters; [5]): 100 | Lambsquarters plant response rating (lambsquarters; [1]): 98 | Foxtail, Giant plant response rating (giant foxtail; [4]): 40 | Foxtail, Giant plant response rating (giant foxtail; [5]): 100 | Foxtail, Giant plant response rating (giant foxtail; [1]): 100 | Plant response rating, Foxtail, Giant (giant foxtail; 31 g ai/ha): 95 | Crabgrass, Large plant response rating (large (Lg) crabgrass; [4]): 75 | Crabgrass, Large plant response rating (large (Lg) crabgrass; [5]): 100 | Crabgrass, Large plant response rating (large (Lg) crabgrass; [1]): 100 | Plant response rating, Crabgrass, Large (large (Lg) crabgrass; 31 g ai/ha): 85 | Johnsongrass plant response rating (johnsongrass; [4]): 5 | Johnsongrass plant response rating (johnsongrass; [5]): 75 | Johnsongrass plant response rating (johnsongrass; [1]): 80 | Galium plant response rating (galium; [4]): 75 | Galium plant response rating (galium; [5]): 95 | Galium plant response rating (galium; [1]): 95 | Plant response rating, Galium (galium; 31 g ai/ha): 100 | Barnyardgrass plant response rating (barnyardgrass; [4]): 15 | Barnyardgrass plant response rating (barnyardgrass; [5]): 98 | Barnyardgrass plant response rating (barnyardgrass; [1]): 100 | Plant response rating, Barnyardgrass (barnyardgrass; 31 g ai/ha): 70 | Waterhemp plant response rating (waterhemp; [4]): 85 | Waterhemp plant response rating (waterhemp; [5]): 100 | Waterhemp plant response rating (waterhemp; [1]): 100
